Measured values published in ChEMBL document CHEMBL1201862, “PubChem BioAssay data set” (2004).
The source made the active and inactive calls.

Columns and labels:
[1] = target: Prothrombin (Homo sapiens, UniProt P00734); test: Thrombin 1536 HTS Dose Response Confirmation. [Related pubchem assays: 1046 (Thrombin 1536 HTS; hits were confirmed in this assay)]; format: functional
[2] = target: T1, Tyrosine-protein phosphatase non-receptor type 7 (Homo sapiens, UniProt P35236); test: HePTP tyrosine phosphatase activity blockers – biochemical, absorbance, leukemia target, primary screen (AID 521); format: functional
T1 sequence (P35236 whole entry): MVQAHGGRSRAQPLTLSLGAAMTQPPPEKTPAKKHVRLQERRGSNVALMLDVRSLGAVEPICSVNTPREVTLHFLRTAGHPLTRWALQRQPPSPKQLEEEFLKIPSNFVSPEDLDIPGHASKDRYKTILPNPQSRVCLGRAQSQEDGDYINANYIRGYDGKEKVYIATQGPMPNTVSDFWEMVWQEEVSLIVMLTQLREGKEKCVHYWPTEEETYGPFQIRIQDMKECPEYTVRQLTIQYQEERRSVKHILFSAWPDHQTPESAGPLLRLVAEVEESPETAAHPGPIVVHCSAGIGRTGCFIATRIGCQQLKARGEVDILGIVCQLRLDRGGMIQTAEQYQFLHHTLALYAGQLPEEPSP

[3] = target: Eukaryotic translation initiation factor 4E (Mus musculus, UniProt P63073); test: blockers of eIF4G binding by eIF4E – biochemical, TR-FRET, dose response (AID 855); format: functional;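 further: potency for disrupting eIF4E binding to eIF4GI seen as loss of FRET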
Sequence of Eukaryotic translation initiation factor 4E (P63073 whole entry): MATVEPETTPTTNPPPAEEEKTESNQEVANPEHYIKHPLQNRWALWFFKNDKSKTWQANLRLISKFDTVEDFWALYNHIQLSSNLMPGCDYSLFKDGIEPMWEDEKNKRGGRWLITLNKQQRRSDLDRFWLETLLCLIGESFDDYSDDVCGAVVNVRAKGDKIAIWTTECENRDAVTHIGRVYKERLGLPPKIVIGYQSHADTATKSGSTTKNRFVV

[4] = target: Cytochrome P450 2C19 (Homo sapiens, UniProt P33261); test: Cytochrome panel assay with activity outcomes. Panel member name: p450-cyp2c19 Compounds with AC50 equal or less than 10 uM are considered active; format: functional
Sequence of Cytochrome P450 2C19 (P33261 whole entry): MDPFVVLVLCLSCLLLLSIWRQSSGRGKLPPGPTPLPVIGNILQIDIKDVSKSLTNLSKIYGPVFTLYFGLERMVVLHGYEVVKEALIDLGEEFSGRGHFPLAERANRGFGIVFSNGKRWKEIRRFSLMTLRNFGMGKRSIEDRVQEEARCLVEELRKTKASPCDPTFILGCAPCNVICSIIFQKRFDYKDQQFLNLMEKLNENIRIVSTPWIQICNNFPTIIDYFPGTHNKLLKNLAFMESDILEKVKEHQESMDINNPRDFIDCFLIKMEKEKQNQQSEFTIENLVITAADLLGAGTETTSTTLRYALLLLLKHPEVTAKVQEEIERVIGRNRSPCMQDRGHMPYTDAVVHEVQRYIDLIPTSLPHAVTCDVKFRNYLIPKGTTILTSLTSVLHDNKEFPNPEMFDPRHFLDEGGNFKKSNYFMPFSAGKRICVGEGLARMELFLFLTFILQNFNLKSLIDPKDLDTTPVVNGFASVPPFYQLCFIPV

[5] = target: T2, Cytochrome P450 3A4 (Homo sapiens, UniProt P08684);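 further: CYP3A4 tested as one member of a cytochrome P450 panel screen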
T2 sequence (P08684 whole entry): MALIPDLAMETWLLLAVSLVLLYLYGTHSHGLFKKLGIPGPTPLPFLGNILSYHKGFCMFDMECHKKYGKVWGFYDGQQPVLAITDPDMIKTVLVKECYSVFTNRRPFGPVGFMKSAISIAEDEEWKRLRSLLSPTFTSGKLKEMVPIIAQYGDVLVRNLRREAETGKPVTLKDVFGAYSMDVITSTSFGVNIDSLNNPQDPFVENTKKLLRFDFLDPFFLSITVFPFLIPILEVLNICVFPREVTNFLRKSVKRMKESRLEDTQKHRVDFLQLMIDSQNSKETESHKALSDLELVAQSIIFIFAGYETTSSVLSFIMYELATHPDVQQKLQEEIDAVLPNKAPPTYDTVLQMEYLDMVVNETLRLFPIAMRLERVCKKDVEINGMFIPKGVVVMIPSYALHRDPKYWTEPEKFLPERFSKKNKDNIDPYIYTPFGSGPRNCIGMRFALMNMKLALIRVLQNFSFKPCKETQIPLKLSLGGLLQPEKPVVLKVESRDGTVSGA

[6] = target: T3, Cytochrome P450 2C9 (Homo sapiens, UniProt P11712)
T3 sequence (P11712 whole entry): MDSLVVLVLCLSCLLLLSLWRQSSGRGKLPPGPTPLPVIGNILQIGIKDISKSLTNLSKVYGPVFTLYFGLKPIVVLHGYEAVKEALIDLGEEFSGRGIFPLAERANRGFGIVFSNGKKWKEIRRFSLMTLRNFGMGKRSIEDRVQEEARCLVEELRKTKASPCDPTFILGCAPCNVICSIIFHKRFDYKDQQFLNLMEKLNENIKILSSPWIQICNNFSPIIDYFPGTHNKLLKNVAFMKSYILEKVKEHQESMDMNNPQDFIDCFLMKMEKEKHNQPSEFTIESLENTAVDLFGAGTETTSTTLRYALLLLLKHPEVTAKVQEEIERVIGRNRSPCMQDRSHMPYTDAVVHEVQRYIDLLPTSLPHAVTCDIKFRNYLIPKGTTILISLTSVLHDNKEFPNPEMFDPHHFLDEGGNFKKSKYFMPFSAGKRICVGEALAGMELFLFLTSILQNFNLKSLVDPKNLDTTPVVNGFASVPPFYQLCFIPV

[7] = decrease of insulin promoter-GFP reporter – imaging, high-content screening, mouse beta cells (AID 1628); format: functional; conditions: MIN6
[8] = test system: INS1; test: INS-1E survival protection against cytokine death – cell-based, luminescence, retest, dose response (AID 449756); format: functional; conditions: Rattus norvegicus;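 further: cell death triggered by IL-1 beta plus TNF-alpha plus IFN-gamma mixture; protective hits raise ATP signal compared with cytokine alone wells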
[9] = MIN6 cell viability loss – mouse insulinoma, cytotoxicity control, dose response (AID 2122); format: functional;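 further: confirmatory high-throughput counterscreen run to flag cytotoxic compounds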
[10] = target: T4, Microphthalmia-associated transcription factor (Homo sapiens, UniProt O75030); test: reducers of TRPM1 reporter luminescence, concentration series – cell-based, SK-MEL-5, cherry-picked, set 3, MITF inhibitor project, dose response (AID 493073); format: functional;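 further: SK-MEL-5 melanoma cells with luciferase driven by the MITF target TRPM1 promoter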
T4 sequence (O75030 whole entry): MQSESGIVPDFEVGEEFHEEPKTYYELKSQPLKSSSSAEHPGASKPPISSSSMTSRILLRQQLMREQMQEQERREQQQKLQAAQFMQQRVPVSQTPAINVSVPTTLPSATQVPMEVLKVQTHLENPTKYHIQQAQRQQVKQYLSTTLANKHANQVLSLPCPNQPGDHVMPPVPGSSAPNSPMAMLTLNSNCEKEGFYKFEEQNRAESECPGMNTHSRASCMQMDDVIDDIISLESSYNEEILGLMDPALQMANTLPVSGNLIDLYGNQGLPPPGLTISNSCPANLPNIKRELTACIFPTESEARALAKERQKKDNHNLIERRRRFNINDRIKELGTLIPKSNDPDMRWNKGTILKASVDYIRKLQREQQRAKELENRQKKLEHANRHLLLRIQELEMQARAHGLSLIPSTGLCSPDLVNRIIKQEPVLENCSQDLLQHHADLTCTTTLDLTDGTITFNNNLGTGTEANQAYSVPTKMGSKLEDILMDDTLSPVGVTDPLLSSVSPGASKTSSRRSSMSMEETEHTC

[11] = target: T2, Cytochrome P450 3A4; remark: listed apart in the source
[12] = target: Cytochrome P450 2D6 (Homo sapiens, UniProt P10635);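 further: CYP2D6 member of a cytochrome P450 panel assay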
Sequence of Cytochrome P450 2D6 (P10635 whole entry): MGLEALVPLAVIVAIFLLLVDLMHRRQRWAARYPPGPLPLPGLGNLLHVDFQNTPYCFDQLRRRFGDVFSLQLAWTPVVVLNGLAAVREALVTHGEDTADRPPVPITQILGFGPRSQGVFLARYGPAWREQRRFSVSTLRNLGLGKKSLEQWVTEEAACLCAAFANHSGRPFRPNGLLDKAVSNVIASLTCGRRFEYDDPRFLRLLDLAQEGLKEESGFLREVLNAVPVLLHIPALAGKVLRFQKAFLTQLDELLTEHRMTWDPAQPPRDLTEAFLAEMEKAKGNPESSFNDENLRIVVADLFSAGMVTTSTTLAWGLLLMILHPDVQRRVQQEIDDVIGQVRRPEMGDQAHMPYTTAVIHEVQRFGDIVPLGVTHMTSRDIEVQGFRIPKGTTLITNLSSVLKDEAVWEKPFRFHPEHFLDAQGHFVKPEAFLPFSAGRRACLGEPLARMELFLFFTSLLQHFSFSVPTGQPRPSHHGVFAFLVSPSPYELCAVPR

[13] = test system: Streptococcus sp. 'group A'; test: Streptococcus pyogenes SK(-)GAS viability under kanamycin – luminescence, BacTiterGlo, confirmation, counter-screen for streptokinase expression inhibitor project, dose response (AID 1900); format: functional, organism-based
[14] = Trypanosoma cruzi growth suppression in host cells – NIH3T3 host cells, beta-gal luminescence, confirmation (AID 2044); format: functional, cell-based;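 further: intracellular parasites grown in NIH/3T3 mouse fibroblasts as host cells; luminescent beta-galactosidase reporter signal from transgenic T. cruzi replicating inside host cells; inhibitors lower the luminescence signal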
[15] = test system: Streptococcus; test: GAS UMAA2166 growth inhibition – luminescence, BacTiterGlo, counter-screen for streptokinase expression inhibitor project, dose response (AID 1915); format: functional, organism-based;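 further: potency for reduction of bacterial viability or growth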
[16] = viability of HCT116 lacking mutant beta-catenin – cell-based, human colon tumor, dose response (AID 1045); format: functional;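 further: HCT116 colon tumor cells with beta catenin knocked out; cells exposed to compound for 60 hours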
[17] = NIH3T3 cell viability loss – ATP luminescence, mouse fibroblasts, counter-screen, dose response (AID 2010); format: functional, cell-based;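 further: cells exposed to compound for about 90 hours before reading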
[18] = target: T5, RNA-binding protein pos-1 (Caenorhabditis elegans, UniProt G5EF15); test: disruptors of C. elegans POS-1 RNA interaction – biochemical, fluorescence polarization, dose response (AID 1964);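 further: purified POS-1 fused to maltose binding protein made in E. coli; potency of compounds blocking POS-1 binding to fluorescent RNA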
T5 sequence (G5EF15 whole entry): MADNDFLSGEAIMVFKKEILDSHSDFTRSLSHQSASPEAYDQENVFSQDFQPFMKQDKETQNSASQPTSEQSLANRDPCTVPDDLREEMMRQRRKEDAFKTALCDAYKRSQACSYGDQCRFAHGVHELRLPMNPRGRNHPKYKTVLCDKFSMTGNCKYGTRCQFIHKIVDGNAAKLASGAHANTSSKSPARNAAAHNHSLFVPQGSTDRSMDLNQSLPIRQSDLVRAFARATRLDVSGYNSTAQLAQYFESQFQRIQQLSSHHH

[19] = target: T6, Zinc finger protein mex-5 (Caenorhabditis elegans, UniProt Q9XUB2); test: potency of MEX-5 RNA-binding blockers – biochemical, C. elegans, fluorescence polarization, dose response (AID 1960)
T6 sequence (Q9XUB2 whole entry): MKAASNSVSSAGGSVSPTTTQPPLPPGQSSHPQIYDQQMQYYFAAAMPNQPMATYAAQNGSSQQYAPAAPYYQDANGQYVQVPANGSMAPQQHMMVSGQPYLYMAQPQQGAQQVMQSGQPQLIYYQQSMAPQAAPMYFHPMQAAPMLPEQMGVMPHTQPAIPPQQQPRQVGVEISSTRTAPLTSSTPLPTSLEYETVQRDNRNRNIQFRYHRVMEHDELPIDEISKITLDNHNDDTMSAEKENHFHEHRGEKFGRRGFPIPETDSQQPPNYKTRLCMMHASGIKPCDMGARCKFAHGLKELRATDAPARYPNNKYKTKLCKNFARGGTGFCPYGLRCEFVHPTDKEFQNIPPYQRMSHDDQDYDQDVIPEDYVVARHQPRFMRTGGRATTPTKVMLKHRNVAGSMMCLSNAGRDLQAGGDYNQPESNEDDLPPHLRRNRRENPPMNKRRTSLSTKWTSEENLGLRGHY

[20] = viability of PTEN-deleted HCT116 cells – cell-based, HCT116 PTEN knockout, dose response (AID 1047); format: functional;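 further: HCT116 colon tumor cells with PTEN knocked out; cells exposed to compound for 60 hours before readout; potency for loss of cell viability measured by luminescence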
[21] = target: T7, fMet-Leu-Phe receptor (Homo sapiens, UniProt P21462); test: formyl peptide receptor binders – dose response (AID 519); format: functional
T7 sequence (P21462 whole entry): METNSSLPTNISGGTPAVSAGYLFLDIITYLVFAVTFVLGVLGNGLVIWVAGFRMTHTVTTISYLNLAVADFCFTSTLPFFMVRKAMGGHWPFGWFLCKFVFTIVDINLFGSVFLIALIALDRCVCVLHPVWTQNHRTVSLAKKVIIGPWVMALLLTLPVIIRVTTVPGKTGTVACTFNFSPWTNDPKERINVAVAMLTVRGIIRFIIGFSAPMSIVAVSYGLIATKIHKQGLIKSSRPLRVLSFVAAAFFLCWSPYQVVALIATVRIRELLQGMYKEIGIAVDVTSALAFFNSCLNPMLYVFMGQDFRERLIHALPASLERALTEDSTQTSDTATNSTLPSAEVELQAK

[22] = target: T8, Aminopeptidase N (Plasmodium falciparum FcB1/Columbia, UniProt O96935); test: malaria alanyl aminopeptidase activity blockers – biochemical, fluorogenic H-Leu-NHMec substrate, 1536-well (AID 1445); parameters: species or system Plasmodium falciparum 3D7, 3D7
T8 sequence (O96935 whole entry): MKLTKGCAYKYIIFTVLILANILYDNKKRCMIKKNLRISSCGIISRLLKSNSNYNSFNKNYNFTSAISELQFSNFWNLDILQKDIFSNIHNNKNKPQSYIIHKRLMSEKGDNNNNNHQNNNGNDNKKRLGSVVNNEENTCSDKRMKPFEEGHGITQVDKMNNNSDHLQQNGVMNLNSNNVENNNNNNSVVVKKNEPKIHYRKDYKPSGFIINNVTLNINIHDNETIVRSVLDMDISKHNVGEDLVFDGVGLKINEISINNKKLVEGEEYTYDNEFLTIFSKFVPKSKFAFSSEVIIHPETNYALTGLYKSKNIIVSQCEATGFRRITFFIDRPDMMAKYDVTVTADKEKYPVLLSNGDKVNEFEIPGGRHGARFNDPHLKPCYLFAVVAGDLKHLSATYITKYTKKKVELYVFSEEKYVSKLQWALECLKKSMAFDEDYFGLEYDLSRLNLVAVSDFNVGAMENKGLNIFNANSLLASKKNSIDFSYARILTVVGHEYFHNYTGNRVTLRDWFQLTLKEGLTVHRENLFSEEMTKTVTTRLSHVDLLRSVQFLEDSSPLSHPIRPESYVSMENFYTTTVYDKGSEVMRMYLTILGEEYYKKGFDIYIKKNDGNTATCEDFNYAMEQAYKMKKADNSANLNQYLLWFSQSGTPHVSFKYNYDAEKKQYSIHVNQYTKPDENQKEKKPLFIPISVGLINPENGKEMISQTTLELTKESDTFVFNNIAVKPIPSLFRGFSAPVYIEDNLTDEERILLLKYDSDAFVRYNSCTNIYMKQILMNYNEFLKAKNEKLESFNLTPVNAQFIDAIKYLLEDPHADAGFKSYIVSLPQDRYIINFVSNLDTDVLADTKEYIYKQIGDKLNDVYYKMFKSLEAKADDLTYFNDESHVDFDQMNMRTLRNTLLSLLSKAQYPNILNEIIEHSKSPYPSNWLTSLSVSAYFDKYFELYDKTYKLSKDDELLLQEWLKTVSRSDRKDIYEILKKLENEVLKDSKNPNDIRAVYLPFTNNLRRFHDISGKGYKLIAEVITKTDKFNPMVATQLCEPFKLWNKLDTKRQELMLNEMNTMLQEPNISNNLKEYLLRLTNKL

[23] = target: Large T antigen (Simian virus 40, UniProt P03070); format: functional, Betapolyomavirus macacae;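 further: Confirmatory-stage PubChem screen for compounds that inhibit SV40 T antigen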
Sequence of Large T antigen (P03070 whole entry): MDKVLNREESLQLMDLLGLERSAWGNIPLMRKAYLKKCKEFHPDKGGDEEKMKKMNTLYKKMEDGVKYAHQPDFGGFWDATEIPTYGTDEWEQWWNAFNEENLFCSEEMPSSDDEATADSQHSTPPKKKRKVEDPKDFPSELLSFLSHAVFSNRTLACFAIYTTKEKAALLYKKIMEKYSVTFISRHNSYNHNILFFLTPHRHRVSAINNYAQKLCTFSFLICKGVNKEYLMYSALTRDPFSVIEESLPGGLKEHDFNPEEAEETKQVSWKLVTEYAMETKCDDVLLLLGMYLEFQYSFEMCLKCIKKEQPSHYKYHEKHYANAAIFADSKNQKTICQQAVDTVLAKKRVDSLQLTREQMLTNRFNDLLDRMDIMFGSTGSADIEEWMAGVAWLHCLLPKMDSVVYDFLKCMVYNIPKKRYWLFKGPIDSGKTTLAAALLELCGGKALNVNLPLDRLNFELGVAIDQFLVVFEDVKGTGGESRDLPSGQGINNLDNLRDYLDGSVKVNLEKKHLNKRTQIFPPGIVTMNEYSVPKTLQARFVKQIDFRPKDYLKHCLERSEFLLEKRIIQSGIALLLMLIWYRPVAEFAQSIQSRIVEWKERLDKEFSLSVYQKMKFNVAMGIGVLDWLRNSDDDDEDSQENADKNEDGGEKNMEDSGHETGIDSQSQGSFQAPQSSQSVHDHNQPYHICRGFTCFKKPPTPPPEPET

[24] = cells; format: functional
[25] = cytotoxicity in MITF-independent A375 cells – cell-based, CellTiter-Glo luminescence, dry powder, set 4, counter-screen for MITF inhibitor project, dose response (AID 624364); format: functional; conditions: A-375;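 further: A375 melanoma cells are MITF independent so this is a counter screen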
[26] = target: T3, Cytochrome P450 2C9; remark: listed apart in the source
[27] = P. falciparum Dd2 growth inhibitors, dose response, SYBR Green, cherry-picked samples (AID 1159567); format: functional, cell-based

## CCCCOC(=O)Sc1nc2ccccc2o1
[1]
  IC50: 3.11 µM (active)

## COc1ccc2c3ncn(CC4CCCO4)c(O)c-3nc2c1 (centres undefined)
[2]
  IC50: > 100 µM (not active)

## COC(=O)n1c(=S)oc2cc(Cl)ccc21
[3]
  IC50: > 64 µM (inactive)

## CCC1Oc2ccccc2N(CC(=O)NCCCN2CCCCC2C)C1=O (centres undefined)
[4]
  AC50: 2.24 µM (inconclusive)
[5]
  AC50: 20 µM (inconclusive)
[6]
  AC50: inconclusive

## CC(O)(CS(=O)(=O)c1cccc(C(F)(F)F)c1)C(=O)Nc1cccc(C(F)(F)F)c1 (centres undefined)
[6]
  AC50: inconclusive

## O=[N+]([O-])c1cccc2c(N3CCCC3)ccnc12
[7]
  IC50: 2.41 µM (active)
[8]
  AC50: 3.17 µM (active)
[9]
  IC50: 1.18 µM (active)
[10]
  AC50: 2.47 µM (active)

## CC(C)(C)c1ccc(OCC(=O)NNC(=O)CCc2ccccc2)cc1
[4]
  AC50: 14.1 µM (inconclusive)
[11]
  AC50: inconclusive
[6]
  AC50: inconclusive

## CCCC(=O)Nc1ccc(C(=O)Nc2cc(C(F)(F)F)ccc2Cl)cc1
[12]
  AC50: 8.91 µM (inconclusive)
[5]
  AC50: 15.8 µM (inconclusive)
[6]
  AC50: inconclusive

## COc1ccc(-n2nc(C(=O)c3cccs3)cc(-c3nc4ccccc4[nH]3)c2=N)cc1
[13]
  EC50: 3.26 µM (active)
[14]
  EC50: 0.531 µM (active)
[15]
  EC50: 10 µM (active)
[16]
  EC50: 11.2 µM (active)
[1]
  IC50: > 50 µM (not active)
[17]
  EC50: > 60 µM (not active)
[18]
  EC50: 53.8 µM (active)
[19]
  EC50: 66.3 µM (active)
[20]
  EC50: 14.6 µM (active)

## CCN(CC)CCCN(Cc1cc2cc3c(cc2[nH]c1=O)OCO3)C(=S)Nc1ccccc1OC
[1]
  IC50: > 50 µM (not active)

## Cc1ccc(-n2c(Cc3cccn3C)nnc2SCC(=O)NCc2ccco2)cc1
[2]
  IC50: > 100 µM (not active)

## O=C(NC1CCCC1)c1sc(=S)n2c1[nH]c(=O)c1ccccc12
[21]
  Ki: 14.7 µM (active)
[22]
  IC50: 35 µM (active)
[23]
  IC50: > 100 µM (active)

## CCOc1cccc2cc(C(=O)Nc3nccs3)c(=O)oc12
[24]
  IC50: 1.31 µM (active)
[2]
  IC50: > 100 µM (not active)

## COc1ccccc1CN(CC(=O)NCc1ccco1)C(=O)CNS(=O)(=O)c1ccc(C)cc1
[1]
  IC50: 7.63 µM (active)

## CCC(C)[C@H](NC(=O)NCC1CCCO1)C(=O)OC (some centres undefined)
[2]
  IC50: > 100 µM (not active)

## O=C1C(NS(=O)(=O)c2ccc(Br)cc2)=C(N2CCN(c3ccccc3)CC2)C(=O)c2ccccc21
[25]
  AC50: > 70 µM (inactive)

## COc1ccc(/C=N/n2cnc3c4cc(Br)ccc4nc-3c2O)cc1CN1CCOCC1
[26]
  AC50: 3.55 µM (inconclusive)
[3]
  IC50: > 64 µM (inactive)

## O=C(C[C@H]1CC[C@@H]2[C@H](COC[C@@H](O)CN2C(=O)Nc2ccc3c(c2)OCO3)O1)N1CCN(c2ccccc2)CC1
[27]
  AC50: 22.8 µM (active)
